Data published in EP3741762A1, “OXALAMIDO-SUBSTITUTED TRICYCLIC INHIBITORS OF HEPATITIS B VIRUS” (priority 2019, dated 2020).

Tested on: HBV
Assay: Anti-HBV activity in vitro: quantification of extracellular HBV DNA by direct qPCR in HepAD38 cells
Format: cell-based
Settings: Hepatitis B virus, tetracycline-free medium, 96 hours at 37°C, reported as EC50 threshold value, read-out: HBV inh EC50
Description: HepAD38 cell line (Ladner et al., Antimicrob Agents Chemother, 1997, 41, 1715-20) was used for HBV inhibition assays. HepAD38 is a subclone, derived from Hepatoblastoma cell line HepG2 (ATCC® Number: HB-8065™), that expresses HBV genome under the transcriptional control of a tetracycline-responsive promoter in a TET-OFF system: addition of tetracycline (TET) or doxycycline suppresses HBV replication, while its removal switches on the process allowing HBV viral particles release in the cell supernatant. HepAD38 cell line is maintained in DMEM/F12, supplemented with 10% of fetal bovine serum, 1% of glutamine, 1% of penicillin/streptomycin, 0.4 mg/ml G418 and 0,3 ug/ml tetracycline. For the HBV inhibition assay, doxycycline-free medium is used in order to allow virion production.
HBV inhibition activity in vitro was performed in 96 multiwell plates. During the initial (primary) screening, compounds were first tested in triplicates at concentrations of 0.02 µM, 0.1 µM, 0.5µM and 1µM. For selected compounds, an 8-point dose-response curve was obtained using 1:2 serial dilutions (starting from 0.01µM, 0.1µM, 0.4µM or 5 µM, depending on the degree of inhibition observed during the primary screening). From the dose-response curves, half maximal effective concentration (EC50) could be calculated (see also below).
In more detail, compounds - typically dissolved in DMSO stock solutions - were diluted to 2x the final desired concentration in 100 µl of the above medium (without doxycycline) and plated in three replicates in the 96-well plates.
Simultaneously, HepAD38 cells - extensively pre-washed in tetracycline-free medium in order to induce HBV production - were suspended at 2^∗10^4 cells in 100 µl of tetracycline-free medium and added to each well of the plate, to yield a final assay volume of 200 µl DMSO - used for stock solutions and compounds dilutions - which was always present in the assays at a final concentration of 0.5%.
Plates were then incubated 96 hours at 37°C and then subjected to cell viability assays and extracellular HBV quantification, in order to evaluate both the cytotoxic potential and the antiviral activity of compounds. Cytotoxicity was assessed by a commercial fluorescence assay that measures the metabolic activity of cells, directly related to cell viability (Cell Titer Blue, Promega). Anti-HBV activity was evaluated by quantification of extracellular HBV DNA with direct qPCR. In particular, supernatant was collected and centrifuged for cell debris clarification, viral DNA was extracted from virions by addition of lysis buffer (1 mM 1,4-dithiothreitol, 0.2% sodium dodecyl sulphate) and incubated at 95°C for 10 min. Samples were then diluted 1:40 and real time PCR amplification was performed with SYBR green assay (Power SYBR™ Green PCR Master Mix-Thermo Fisher Scientific) and specific HBV primer (HBV-DF:5'-[…]-3' (SEQ ID No. 1), HBV-DR:5'-[…]-3' (SEQ ID No.2)).
Antiviral activity data for each compound are reported as EC50 threshold value (see Table 1 legend). Excel and Graphpad Prism programs are typically used for data elaboration and EC50 calculation.

SMILES	EC50 [nM]
Cn1cc2c(c1C(=O)Nc1ccc(F)c(C#N)c1)OC[C@@H]1CN(C(=O)C(=O)NC3(C)COC3)C[C@@H]1NS2(=O)=O [Example E6, (3aR,10aR)-N-(3-cyano-4-fluorophenyl)-7-methyl-2-(2-((3-methyloxetan-3-yl)amino)-2-oxoacetyl)-2,3,3a,4,10,10a-hexahydro-1H,7H-dipyrrolo[3,4-b:3',4'-f][1,4,5] oxathiazocine-8-carboxamide 5,5-dioxide]	> 500
Cn1cc2c(c1C(=O)Nc1ccc(F)c(Cl)c1)OC[C@@H]1CN(C(=O)C(=O)NC3(C)COC3)C[C@@H]1NS2(=O)=O [Example E5, (3aR,10aR)-N-(3-chloro-4-fluorophenyl)-7-methyl-2-(2-((3-methyloxetan-3-yl)amino)-2-oxoacetyl)-2,3,3a,4,10,10a-hexahydro-1H,7H-dipyrrolo[3,4-b:3',4'-f][1,4,5] oxathiazocine-8-carboxamide 5,5-dioxide]	< 500
Cc1cc(NC(=O)c2c3c(cn2C)S(=O)(=O)N[C@H]2CN(C(=O)C(=O)NC4CC(F)(F)C4)C[C@H]2CS3)ccc1F [Example E41, (3aR,10aR)-2-(2-((3,3-difluorocyclobutyl)amino)-2-oxoacetyl)-N-(4-fluoro-3-methylphenyl)-7-methyl-2,3,3a,4,10,10a-hexahydro-1H,7H-dipyrrolo[3,4-c:3',4'-g][1,6,2]dithiazocine-8-carboxamide 5,5-dioxide]	< 500
Cc1cc(NC(=O)c2c3c(cn2C)S(=O)(=O)N[C@H]2CN(C(=O)C(=O)NC4CC4)C[C@H]2CO3)ccc1F [Example E8, (3aR,10aR)-2-(2-(cyclopropylamino)-2-oxoacetyl)-N-(4-fluoro-3-methylphenyl)-7-methyl-2,3,3a,4,10,10a-hexahydro-1H,7H-dipyrrolo[3,4-b:3',4'-f][1,4,5]oxathiazocine-8-carboxamide 5,5-dioxide]	< 500
Cc1cc(NC(=O)c2c3c(cn2C)S(=O)(=O)N[C@H]2CN(C(=O)C(=O)NCC(F)(F)F)C[C@H]2CS3)ccc1F [Example E38, (3aR,10aR)-N-(4-fluoro-3-methylphenyl)-7-methyl-2-(2-oxo-2-((2,2,2-trifluoroethyl)amino)acetyl)-2,3,3a,4,10,10a-hexahydro-1H,7H-dipyrrolo[3,4-c:3',4'-g][1,6,2]dithiazocine-8-carboxamide 5,5-dioxide]	< 500
Cc1cc(NC(=O)c2c3c(cn2C)S(=O)(=O)N[C@H]2CN(C(=O)C(=O)N[C@H](C)C(F)(F)F)C[C@H]2CS3)ccc1F [Example E24, (3aR,10aR)-N-(4-fluoro-3-methylphenyl)-7-methyl-2-(2-oxo-2-(((R)-1,1,1-trifluoropropan-2-yl)amino)acetyl)-2,3,3a,4,10,10a-hexahydro-1H,7H-dipyrrolo[3,4-c:3',4'-g][1,6,2] dithiazocine-8-carboxamide 5,5-dioxide]	< 500
Cc1cc(NC(=O)c2c3c(cn2C)S(=O)(=O)N[C@@H]2CN(C(=O)C(=O)N[C@H](C)C(F)(F)F)C[C@]2(C)CO3)ccc1F (stereo in doubt) [Example E26, Cis-N-(4-fluoro-3-methylphenyl)-7,10a-dimethyl-2-(2-oxo-2-(((R)-1,1,1-trifluoropropan-2-yl)amino)acetyl)-2,3,3a,4,10,10a-hexahydro-1H,7H-dipyrrolo[3,4-b:3',4'-f][1,4,5]oxathiazocine-8-carboxamide 5,5-dioxide]	< 500
Cc1cc(NC(=O)c2c3c(cn2C)S(=O)(=O)N[C@H]2CN(C(=O)C(=O)NCC4CC4)C[C@H]2CO3)ccc1F [Example E20, (3aR,10aR)-2-(2-((cyclopropylmethyl)amino)-2-oxoacetyl)-N-(4-fluoro-3-methylphenyl)-7-methyl-2,3,3a,4,10,10a-hexahydro-1H,7H-dipyrrolo[3,4-b:3',4'-f][1,4,5]oxathiazocine-8-carboxamide 5,5-dioxide]	< 500
Cc1cc(NC(=O)c2c3c(cn2C)S(=O)(=O)N[C@H]2CN(C(=O)C(=O)N4CC(F)(F)C4)C[C@H]2CO3)ccc1F [Example E29, (3aR,10aR)-2-(2-(3,3-difluoroazetidin-1-yl)-2-oxoacetyl)-N-(4-fluoro-3-methylphenyl)-7-methyl-2,3,3a,4,10,10a-hexahydro-1H,7H-dipyrrolo[3,4-b:3',4'-f][1,4,5]oxathiazocine-8-carboxamide 5,5-dioxide]	< 500
Cc1cc(NC(=O)c2c3c(cn2C)S(=O)(=O)N[C@H]2CN(C(=O)C(N)=O)C[C@H]2CS3)ccc1F [Example E34, (3aR,10aR)-2-(2-amino-2-oxoacetyl)-N-(4-fluoro-3-methylphenyl)-7-methyl-2,3,3a,4,10,10a-hexahydro-1H,7H-dipyrrolo[3,4-c:3',4'-g][1,6,2]dithiazocine-8-carboxamide 5,5-dioxide]	< 500
Cc1cc(NC(=O)c2c3c(cn2C)S(=O)(=O)N[C@@H]2CN(C(=O)C(=O)N[C@H](C)C(F)(F)F)C[C@H]2CO3)ccc1F (stereo in doubt) [Example E30, trans-N-(4-fluoro-3-methylphenyl)-7-methyl-2-(2-oxo-2-(((R)-1,1,1-trifluoropropan-2-yl)amino)acetyl)-2,3,3a,4,10,10a-hexahydro-1H,7H-dipyrrolo[3,4-b:3',4'-f][1,4,5]oxathiazocine-8-carboxamide 5,5-dioxide]	< 500
Cc1cc(NC(=O)c2c3c(cn2C)S(=O)(=O)N[C@@H]2CN(C(=O)C(=O)NC4CC4)C[C@]2(C)CO3)ccc1F (relative stereo) [Example E25, cis-2-(2-(cyclopropylamino)-2-oxoacetyl)-N-(4-fluoro-3-methylphenyl)-7,10a-dimethyl-2,3,3a,4,10,10a-hexahydro-1H,7H-dipyrrolo[3,4-b:3',4'-f][1,4,5]oxathiazocine-8-carboxamide 5,5-dioxide]	< 500
Cc1cc(NC(=O)c2c3c(cn2C)S(=O)(=O)N[C@H]2CN(C(=O)C(=O)NC(C)C)C[C@H]2CO3)ccc1F [Example E21, (3aR,10aR)-N-(4-fluoro-3-methylphenyl)-2-(2-(isopropylamino)-2-oxoacetyl)-7-methyl-2,3,3a,4,10,10a-hexahydro-1H,7H-dipyrrolo[3,4-b:3',4'-f][1,4,5]oxathiazocine-8-carboxamide 5,5-dioxide]	< 500
Cc1cc(NC(=O)c2c3c(cn2C)S(=O)(=O)N[C@H]2CN(C(=O)C(=O)N4CC(F)(F)C4)C[C@H]2CS3)ccc1F [Example E36, (3aR,10aR)-2-(2-(3,3-difluoroazetidin-1-yl)-2-oxoacetyl)-N-(4-fluoro-3-methylphenyl)-7-methyl-2,3,3a,4,10,10a-hexahydro-1H,7H-dipyrrolo[3,4-c:3',4'-g][1,6,2]dithiazocine-8-carboxamide 5,5-dioxide]	< 500
Cc1cc(NC(=O)c2c3c(cn2C)S(=O)(=O)N[C@H]2CN(C(=O)C(=O)NC4CC4)C[C@H]2CS3)ccc1F [Example E23, (3aR,10aR)-2-(2-(cyclopropylamino)-2-oxoacetyl)-N-(4-fluoro-3-methylphenyl)-7-methyl-2,3,3a,4,10,10a-hexahydro-1H,7H-dipyrrolo[3,4-c:3',4'-g][1,6,2]dithiazocine-8-carboxamide 5,5-dioxide]	< 500
Cc1cc(NC(=O)c2c3c(cn2C)S(=O)(=O)N[C@]2(C)CN(C(=O)C(=O)N[C@H](C)C(F)(F)F)C[C@@H]2CO3)ccc1F (stereo in doubt) [Example E27, Cis-N-(4-fluoro-3-methylphenyl)-3a,7-dimethyl-2-(2-oxo-2-(((R)-1,1,1-trifluoropropan-2-yl)amino)acetyl)-2,3,3a,4,10,10a-hexahydro-1H,7H-dipyrrolo[3,4-b:3',4'-f][1,4,5] oxathiazocine-8-carboxamide 5,5-dioxide]	< 500
Cc1cc(NC(=O)c2c3c(cn2C)S(=O)(=O)N[C@]2(C)CN(C(=O)C(=O)NC4CC4)C[C@@H]2CO3)ccc1F (relative stereo) [Example E28, cis-2-(2-(cyclopropylamino)-2-oxoacetyl)-N-(4-fluoro-3-methylphenyl)-3a,7-dimethyl-2,3,3a,4,10,10a-hexahydro-1H,7H-dipyrrolo[3,4-b:3',4'-f][1,4,5]oxathiazocine-8-carboxamide 5,5-dioxide]	< 500
